Experimental data: patent US8637040B2, “Genus-wide chlamydial peptide vaccine antigens” (priority 2008, dated 2014)

Columns and labels:
[1] = test system: C trachomatis; test: DFA staining of vaginal smears after challenge of peptide-immunized mice; type: in vivo, mouse; settings: mice immunized three times at 100 μg doses; days 7 and 14 post-challenge
From the text: Mice are challenged with a human biovar of C trachomatis (K or E serovars for urogenital infections; C or B serovars for ocular infection).
Groups of 4-8 mice are “masked” as to pretreatment before challenge with live elementary bodies (EB). At weekly intervals through at least 4 wks, vaginal (or conjunctival) swabs are collected for isolation culture and direct fluorescence antibody staining for EB.
Using the murine models described above, the present inventors immunized mice with one of the four peptides (Pep4, 7, 8 or 10) administered three times at 100 μg doses. Results of direct fluorescent antibody (DFA) staining are summarized for days 7 and 14 post-challenge in FIGS. 10-11.

[2] = test system: C. trachomatis-infected HEp2 cells; test: Indirect immunofluorescence of immune sera on infected HEp2 cells; type: cell-based, human; settings: sera 1:40 dilution, FITC anti-mouse IgG
From the text: Micrographs of HEp2 cells infected with C. trachomatis are immunostained (by indirect immunofluorescence) with sera (1:40 dilution) from mice immunized with the designated peptides (A-E) or soluble. mAb2 (F). FITC anti-mouse IgG was the detecting antibody. Arrows point to distinct differences in targets of the immune sera. Antibodies in panels A-C recognized EB and RB and possibly some matrix material in the inclusion. Antibodies in D-E also recognized targets in the inclusion matrix and inclusion membrane, similar to immune sera raised against the older vaccine candidate, the entire mAb2 (F). 40× original magnification. Samples are counterstained with Evans blue.
HEp2 cells were infected with C. trachomatis were subjected to cytocentrifugation to deposit them onto microscope slides. After fixation (MeOH) they were stained with sera (1:40 dilution) from mice immunized with the indicated peptides or with soluble mAb2. The binding of the antibodies to the cells was detected using a fluorescent (FITC-labeled) secondary Ab, an anti-mouse IgG. Results appear in FIGS. 9A-F.

[3] = test system: human sera; test: ELISA of human serum samples on 4 peptides (Example XI); type: binding
Protocol: (§1) Blood was collected prior to immunizations and prior to the two boosts. Sera were tested in ELISA. The ELISA method used in the present examples, in which many if not all the parameters and conditions may be varied or modified in ways that are completely conventional in the art, is described below. • 1. 96 well plates (Immulon HBX4) were coated with 50 μl of diluted antigen (peptides at 1 μg/well made in carbonate buffer) and incubated overnight at 4° C. • 2. Unbound antigen was removed by flicking the contents of the plate into a sink without further washing. • 3. Non-specific binding was blocked or prevented by adding 300 μL/well of 4% BSA/PBS-Tween 20 (0.05%). This was allowed to incubate for 2 hour at room temperature. • 4. The plates were washed once with PBS-Tween 20 (0.05%) and 50 μl of primary antibody was added per well at appropriate dilutions. When using serum, the starting dilution was 1:40 and was further diluted by doublings to 1:80, 1:160, and 1:320 (or higher as desired). Plates were incubated for 1 hour at 37° C. • 5. Plates were washed three times with PBS-Tween (0.05%) as above and 100 μl of secondary antibody was added per well at appropriate dilutions. For alkaline phosphatase-conjugated goat anti-mouse IgG-AP, a dilution of 1:500 was used here. Plates were incubated for 1 hour at 37° C. • 6. Plates were again washed three times as above and 200 μl of substrate solution for Alkaline phosphatase (p-nitro phenyl phosphate or pNPP) was added at a concentration of 5 mg/ml. The color reaction was read in an automated microplate reader at a frequency of […] and the absorbance (or optical density) was registered (referred to as A405 or OD405) Several important observations were made in these tests against the 4 peptides: (a) all 4 peptides were immunogenic and induced increasing anti-peptide responses with subsequent boosts in all mice (except in one non-responder) (FIG. 3). […] See also FIG. 16A-16B
Human sera were tested by PCR for expression of several chlamydial genes, by IHC against C. trachomatis-infected cells and by ELISA against several of the peptides of the present invention. Results are shown in Table 7 (below) which include results from PCR-studies for presence of DNA encoding the chlamydial Major Outer Membrane Protein (MOMP) in human peripheral blood mononuclear cells (PBMC) (which are primarily lymphocytes and monocytes) and cervical swabs
Also shown is IHC staining of C. trachomatis-infected human HEp2 cells and binding of antibodies in the patient samples to four peptides of the present invention (Pep4, 7, 8, and 10) in ELISA.

[4] = test system: Pep4, Pep7, Pep8, Pep10; test: Cross-reactivity between peptides in ELISA; type: binding; settings: sera of mice immunized with a single peptide
Protocol: as §1
Both of these are category #1 peptides. […] That supports the notion that CDR1 and CDR3 of mAb2 are antigenically distinct.

[5] = test system: chlamydia; test: Gross anatomical observation of genital tract inflammation after challenge; type: in vivo, mouse; settings: female mice primed and boosted twice SC, necropsy ~28 days post-challenge, vs adjuvant-only control
From the text: FIG. 15A-15C is a set of three photographs showing the gross morphology of tissues of the female reproductive tract of mice immunized and then challenged 28 days earlier with Pep4 or Pep7. Mice had been primed and boosted twice SC, as above, and were challenged with chlamydia 2 weeks later, rechallenged and sacrificed 4 weeks after re-challenge. Inflamed genital tracts outlined in dashed lines.
Genital tracts were exposed at necropsy ˜28 days post-challenge to score inflammatory changes (and then removed for histological analysis). […] Representative examples for recipients of Peptides 4 and 7 are shown in the center and right panels, respectively. Yellow arrows point to uterine horns (which are further demarcated with dashed lines). It is evident that the peptide immunogens reduced the gross pathology of the genital tract even weeks after challenge. This has been reproduced in a second experiment in which control mice received an irrelevant peptide instead of Peptides 4 or 7. Based on what is known in the art from other contexts, the histopathological results are expected to be consistent with these gross anatomical observations.

| Sequence | structures recognized by immune sera in infected cells [2] | ELISA 1:40 on 4 peptides Scale: 1+-3+ ([3]; human serum sample # 1) | ELISA 1:40 on 4 peptides Scale: 1+-3+ ([3]; human serum sample # 2) | ELISA 1:40 on 4 peptides Scale: 1+-3+ ([3]; human serum sample # 3) | ELISA 1:40 on 4 peptides Scale: 1+-3+ ([3]; human serum sample # 5) | ELISA 1:40 on 4 peptides Scale: 1+-3+ ([3]; human serum sample # 7) | ELISA 1:40 on 4 peptides Scale: 1+-3+ ([3]; human serum sample # 8) | ELISA 1:40 on 4 peptides Scale: 1+-3+ ([3]; human serum sample # 9) | ELISA 1:40 on 4 peptides Scale: 1+-3+ ([3]; human serum sample # 10) | ELISA 1:40 on 4 peptides Scale: 1+-3+ ([3]; human serum sample # 12) | ELISA 1:40 on 4 peptides Scale: 1+-3+ ([3]; human serum sample # 13) | ELISA 1:40 on 4 peptides Scale: 1+-3+ ([3]; human serum sample # 16) | ELISA 1:40 on 4 peptides Scale: 1+-3+ ([3]; human serum sample # 18) | ELISA 1:40 on 4 peptides Scale: 1+-3+ ([3]; human serum sample # 21) | ELISA 1:40 on 4 peptides Scale: 1+-3+ ([3]; human serum sample # 22) | ELISA 1:40 on 4 peptides Scale: 1+-3+ ([3]; human serum sample # 23) | ELISA 1:40 on 4 peptides Scale: 1+-3+ ([3]; human serum sample # 24) | ELISA 1:40 on 4 peptides Scale: 1+-3+ ([3]; human serum sample # 26) | further results |
| --- | --- | --- | --- | --- | --- | --- | --- | --- | --- | --- | --- | --- | --- | --- | --- | --- | --- | --- | --- |
| GYTFTDYSMH [Pep8] | recognized targets in the inclusion matrix and membrane | 2 | 1 | 2.5 | 2 | 1 | 3 | 3 | 2 | 2 | 2 | 1.5 | 3 | 3 | 1.5 | 1.5 | 2 | 2 | bacterial shedding measured by DFA staining [1]: reduced bacterial shedding; cross-reactivity of raised Abs with Peps 4, 7 or 10 (ELISA) [4]: did not cross-react |
| HALMPATAVASL [Pep7] | recognized EB and metabolically active, non-infectious reticulate bodies (RB) | 1.5 | 1 | 2.5 | 2 | 0.75 | 3 | 3 | 2 | 1.5 | 2 | 1.5 | 3 | 2 | 1.5 | 1.5 | 1.5 | 2 | gross inflammation / pathology of the genital tract [5]: not nearly as inflamed; cross-reactivity of raised Abs with Pep4 (ELISA) [4]: cross reacted |
| RYDVGGDHYYFTMD [Pep10] | recognized targets in the inclusion matrix and membrane | 2 | 1 | 2.5 | 1.5 | 1 | 3 | 3 | 2 | 2 | 2 | 1 | 2 | 3 | 2 | 1 | 2 | 1.5 |  |
